Data as given in the NIST ThermoML archive (doi:10.1021/acs.jced.8b00692).

Columns and labels:
[1] = 102 kPa, Liquid; for viscosity: Concentric cylinders viscometry; for speed of sound: Frequency=3 MHz, Single path-length method; for mass density: Vibrating tube method
[2] = xn = mol fraction of the nth substance listed; conditions: 102 kPa, Liquid, x2 = 0; for viscosity: Concentric cylinders viscometry; for mass density: Vibrating tube method; for speed of sound: Frequency=3 MHz, Single path-length method

CCCCCCCCC1CCCCC1 [octylcyclohexane]
[1]
Conditions	mass density [kg/m3]	speed of sound [m/s]	viscosity [mPa·s]
293.15 K	814.14	1387	3.52
303.15 K	807.22	1349.1	2.79
313.15 K	800.29	1312.1	2.27
323.15 K	793.36	1275.9	1.88
333.15 K	786.42	1240.5	1.58
343.15 K	779.5	–	1.36
353.15 K	772.5	–	1.16
363.15 K	765.5	–	1.04
373.15 K	758.5	–	0.899

CCCCCCCCCCCCCCCC [hexadecane] + CCCCCCCCCCC1CCCCC1
[2]
Conditions	mass density [kg/m3]	viscosity [mPa·s]
293.15 K	773.37	3.47
303.15 K	766.43	2.76
313.15 K	759.51	2.24
323.15 K	752.61	1.86
333.15 K	745.69	1.56
343.15 K	738.8	1.35
353.15 K	731.9	1.15
363.15 K	724.9	1.02
373.15 K	717.9	0.885

CCCCCCCCCCCCCCCC [hexadecane] + CCCCCCCCCCCCC1CCCCC1
[2]
Conditions	mass density [kg/m3]	viscosity [mPa·s]
293.15 K	773.37	3.47
303.15 K	766.43	2.76
313.15 K	759.51	2.24
323.15 K	752.61	1.86
333.15 K	745.69	1.56
343.15 K	738.8	1.35
353.15 K	731.9	1.15
363.15 K	724.9	1.02
373.15 K	717.9	0.885

CCCCCCC1CCCCC1 [hexylcyclohexane]
[1]
Conditions	mass density [kg/m3]	speed of sound [m/s]	viscosity [mPa·s]
293.15 K	807.71	1361	2.2
303.15 K	800.56	1322.1	1.81
313.15 K	793.4	1284.2	1.51
323.15 K	786.22	1247.1	1.29
333.15 K	779.02	1211	1.09
343.15 K	771.8	–	0.964
353.15 K	764.6	–	0.847
363.15 K	757.3	–	0.758

CCCCCCCCCCCCCCCC [hexadecane] + CCCC1CCCCC1
[2]
Conditions	mass density [kg/m3]	speed of sound [m/s]	viscosity [mPa·s]
293.15 K	773.37	1357.4	3.47
303.15 K	766.43	1319.6	2.76
313.15 K	759.51	1282.9	2.24
323.15 K	752.61	1247	1.86
333.15 K	745.69	1212.1	1.56
343.15 K	738.78	–	1.35
353.15 K	731.9	–	1.15
363.15 K	724.9	–	1.02

CCCCCCCCCCCCCCCC [hexadecane] + CCCCCCCCCC1CCCCC1
[2]
Conditions	mass density [kg/m3]	viscosity [mPa·s]
293.15 K	773.37	3.47
303.15 K	766.43	2.76
313.15 K	759.51	2.24
323.15 K	752.61	1.86
333.15 K	745.69	1.56
343.15 K	738.8	1.35
353.15 K	731.9	1.15
363.15 K	724.9	1.02
373.15 K	717.9	0.885

CCCCCCCCCCCCCCCC [hexadecane] + CCCCCCCC1CCCCC1
[2]
Conditions	mass density [kg/m3]	viscosity [mPa·s]
293.15 K	773.37	3.47
303.15 K	766.43	2.76
313.15 K	759.51	2.24
323.15 K	752.61	1.86
333.15 K	745.69	1.56
343.15 K	738.8	1.35
353.15 K	731.9	1.15
363.15 K	724.9	1.02
373.15 K	717.9	0.885

CCCCCCCCCCCCC1CCCCC1 [dodecylcyclohexane]
[1]
Conditions	mass density [kg/m3]	speed of sound [m/s]	viscosity [mPa·s]
293.15 K	822.31	1423.3	7.76
303.15 K	815.65	1386.3	5.81
313.15 K	809.01	1350.4	4.48
323.15 K	802.37	1315.2	3.55
333.15 K	795.74	1281.1	2.88
343.15 K	789.1	–	2.39
353.15 K	782.5	–	2.01
363.15 K	775.9	–	1.72
373.15 K	769.2	–	1.48
